These results are taken from patent US20060241098A1, “Pesticidal n-substituted azacyclic derivatives” (priority 2003, published 2006).

Read-outs that look alike come from different tables or passages of the source.

Data set [1] has as its system cotton aphid (Aphis gossypii). Description: Translaminar insecticidal activity test on cotton leaves, N-oxides versus free amines. The class given is in vivo. The settings on record: for mortality at 500 ppm: Aphis gossypii. On the procedure: Certain N-Substituted azacyclic compounds where the N-substituent is O^− (the N-oxides) of the present invention were tested to determine their translaminar characteristics as evidenced by activity against cotton aphid (Aphis gossypii) in comparison with their corresponding free amine derivatives. These tests were conducted in the following manner: For each compound tested, one cotton plant with two mature leaves was selected. On the top of one of the leaves a sticky material used for trapping insects was applied using a stamp of about 2.5 centimeters in diameter. The process was repeated on the bottom of the second leaf of the cotton plant. A solution of 500 ppm of test compound (dissolved in 1:1 acetone and water containing a small amount of surfactant) was then applied to the entire side of each leaf opposite the side stamped with the sticky material using a saturated cotton swab. Upon completion of the application of the test compounds, the cotton plants were maintained in a growth chamber for about 18 hours. After this time the leaves of the test plant were infested with a known number of cotton aphids by placing an infested leaf cutting from the cotton aphid colony directly over the sticky material on each leaf. The leaf cutting on the bottom of a leaf of the test plant was secured to the leaf with a pin. The treated and infested cotton plants were then maintained in a chamber, during which time they were evaluated at daily intervals of from one to up to eight days. A test compound was termed active (A) if the top and bottom of the leaves of the test plant were mostly free of aphids (80% to 100%) when compared to untreated controls. […]

In a further data set the test system is cotton aphid. Description: Residual insecticidal activity test on sprayed cotton plants. The format is in vivo, Aphis gossypii. The settings on record: 72 h exposure; for mortality at 224 g/ha / mortality at 560 g/ha / mortality at 1120 g/ha: Aphis gossypii; for Percent Mortality 5 DAT (greenhouse): 5 day residual. Here is the method: Certain N-Substituted azacyclic compounds where the N-substituent is O^− (the N-oxides) of the present invention were also tested to determine their residual insecticidal activity. These tests were conducted in the following manner:
For each rate of application of test compound, a 15 mL aliquot of test solution was prepared. Sufficient test compound was dissolved in 1.5 mL of acetone to provide an application rate as high as 1200 grams/Ha. Each solution was then added to 13.5 mL of water containing 300 ppm of a surfactant. There were four replicates for each rate of application of test compound, and all tests included a known chemical standard as well as a standard of water and untreated checks.
A maximum of 14 appropriately sized cotton plants for each rate of application and replicate were arranged in a 28 pot plastic flat and sprayed with the 15 mL sample of test compound using an traveling boom sprayer equipped with a cone spray tip at a rate of 30 gallons/acre under a pressure of 40-44 psi. The untreated checks were sprayed first, followed by the test compounds and standards, all in order of lowest to highest rates of application. Once the spraying was complete, the test plants were allowed to air-dry on the conveyor on which they were sprayed.
In the test to determine residual activity (0 Day Residual) one set of dry plants was infested with leaf cuttings covered with about 25 cotton aphids taken from cotton plants in an aphid colony. The cotton plants were then maintained in a greenhouse or in an atmosphere of simulated direct sunlight for 72 hours after which time cotton aphid mortality was determined.
A second set of dry test plants treated with test compounds were maintained for three days (3 Day Residual), then infested with cotton aphid. The infested plants were maintained and evaluated for cotton aphid mortality after 72 hours as set forth above. Other residual activity periods are optionally evaluated also, for example a 5 day residual.
At the end of the 72 hour exposure period the numbers of live insects were counted a percent mortality of aphids was calculated based on the number of live insects present and the number that were infested onto the plants.

Where [2] appears, read: 500 ppm applied to opposite leaf side.
Where [3] appears, read: Table 4, 56 g/ha, 3 day residual, simulated sunlight environment.
Where [4] appears, read: Table 4, 56 g/ha, greenhouse environment.
Where [5] appears, read: Table 4, 56 g/ha, infested 0 days after treatment.
Setting [6] is: Table 4, 112 g/ha, 3 day residual, simulated sunlight environment.
[7] abbreviates: Table 4, 112 g/ha, greenhouse environment.
The mark [8] stands for this setting: Table 4, 112 g/ha, infested 0 days after treatment.
Setting [9] is: Table 4, 224 g/ha, 3 day residual, simulated sunlight environment.
Setting [10] is: Table 4, 224 g/ha, greenhouse environment.
The mark [11] stands for this setting: Table 4, 224 g/ha, infested 0 days after treatment.

As usually defined, the mortality is the percentage killed. Regarding `Cc1noc(C2CN3CCC2C3)n1` (stereo not shown) [Compound B, 5-(4-azabicyclo[2.2.1]hept-2-yl)-3-methyl-1,2,4-oxadiazole, reference compound], the mortality at 500 ppm in data set [1] (24 h, read-out: Percent Mortality at Day After treatment (DAT), 1 DAT) was under 50%; in data set [1] (48 h, read-out: Percent Mortality at Day After treatment (DAT), 2 DAT) it was under 50%; in data set [1] (72 h, read-out: Percent Mortality at Day After treatment (DAT), 3 DAT), under 50%; in data set [1] (144 h, read-out: Percent Mortality at Day After treatment (DAT), 6 DAT), under 50%; in data set [1] (168 h, read-out: Percent Mortality at Day After treatment (DAT), 7 DAT), under 50%; in data set [1] (168 h, read-out: mortality throughout the seven-day test period), under 50%. Besides, the mortality at 224 g/ha in the data set on cotton aphid (Table 3, 224 g/ha, 3 day residual, greenhouse environment, read-out: Percent Mortality 3 DAT (greenhouse)) was 41%; in the data set on cotton aphid (Table 3, 224 g/ha, 3 day residual, simulated sunlight environment, read-out: Percent Mortality 3 DAT (simulated sunlight)), 21%; with cotton aphid (Table 3, 224 g/ha, infested 0 days after treatment, read-out: Percent Mortality 0 DAT), 100%. Besides, the mortality at 560 g/ha in the data set on cotton aphid (Table 3, 560 g/ha, 3 day residual, greenhouse environment, read-out: Percent Mortality 3 DAT (greenhouse)) is 84%; in the data set with cotton aphid (Table 3, 560 g/ha, 3 day residual, simulated sunlight environment, read-out: Percent Mortality 3 DAT (simulated sunlight)) it was 49%; in the data set with cotton aphid (Table 3, 560 g/ha, infested 0 days after treatment, read-out: Percent Mortality 0 DAT), 100%. In addition, the mortality at 1120 g/ha was 99% with cotton aphid (Table 3, 1120 g/ha, 3 day residual, greenhouse environment, read-out: Percent Mortality 3 DAT (greenhouse)); 95% in the data set with cotton aphid (Table 3, 1120 g/ha, 3 day residual, simulated sunlight environment, read-out: Percent Mortality 3 DAT (simulated sunlight)); 100% with cotton aphid (Table 3, 1120 g/ha, infested 0 days after treatment, read-out: Percent Mortality 0 DAT).

For the compound `Cc1nnn(C2C[N+]3([O-])CCC2C3)n1` (stereo not shown) [Compound 402, N-Oxide of 2-(4-azabicyclo[2.2.1]heptyl-2-yl)-5-methyl-1,2,3,4-tetrazole], the “Percent Mortality at Day After treatment (DAT), 1 DAT” value in data set [1] (500 ppm applied to opposite leaf side, 1 DAT) is listed as “A (A is 80%-100% mortality when compared to the control)”. The “Percent Mortality at Day After treatment (DAT), 2 DAT” value in data set [1] (setting [2]) is “A (A is 80%-100% mortality when compared to the control)”. Moreover, in data set [1] (setting [2]), the “Percent Mortality at Day After treatment (DAT), 3 DAT” value is given as “A (A is 80%-100% mortality when compared to the control)”. The “Percent Mortality at Day After treatment (DAT), 6 DAT” value in data set [1] (setting [2]) was “A (A is 80%-100% mortality when compared to the control)”. In addition, the “Percent Mortality at Day After treatment (DAT), 7 DAT” value in data set [1] (500 ppm applied to opposite leaf side, 7 DAT) is on record as “A (A is 80%-100% mortality when compared to the control)”. The “Percent Mortality 3 DAT (simulated sunlight)” value with cotton aphid (setting [3]) is reported as 50%; in the data set with cotton aphid (setting [6]), 84%; with cotton aphid (setting [9]), 92%. For the same compound, the “Percent Mortality 5 DAT (greenhouse)” value with cotton aphid (setting [4]) amounted to 45%; with cotton aphid (setting [7]) it was 70%; with cotton aphid (setting [10]), 84%. Also, the “Percent Mortality 0 DAT” value amounted to 50% in the data set with cotton aphid (setting [5]), 84% in the data set with cotton aphid (setting [8]) and 92% in the data set with cotton aphid (setting [11]).

With `Cc1noc(C2C[N+]3([O-])CCC2C3)n1` (stereo not shown) [Compound 396, N-Oxide of 5-(4-azabicyclo[2.2.1]hept-2-yl)-3-methyl-1,2,4-oxadiazole], the “Percent Mortality at Day After treatment (DAT), 2 DAT” value in data set [1] (setting [2]) is reported as “A (A is 80%-100% mortality when compared to the control)”. Besides, the “Percent Mortality at Day After treatment (DAT), 3 DAT” value in data set [1] (setting [2]) was “A (A is 80%-100% mortality when compared to the control)”. Besides, in data set [1] (500 ppm applied to opposite leaf side, 5 DAT), the “Percent Mortality at Day After treatment (DAT), 5 DAT” value is on record as “A (A is 80%-100% mortality when compared to the control)”. Besides, the “Percent Mortality at Day After treatment (DAT), 6 DAT” value in data set [1] (setting [2]) is reported as “A (A is 80%-100% mortality when compared to the control)”. Besides, the “mortality throughout the seven-day test period” value in data set [1] (500 ppm, whole 7-day period) was determined as 100%. The “Percent Mortality 3 DAT (greenhouse)” value in the data set with cotton aphid (Table 3, 224 g/ha, 3 day residual, greenhouse environment) is 98%; with cotton aphid (Table 3, 560 g/ha, 3 day residual, greenhouse environment), 100%; with cotton aphid (Table 3, 1120 g/ha, 3 day residual, greenhouse environment) it was 100%. Besides, the “Percent Mortality 3 DAT (simulated sunlight)” value with cotton aphid (Table 3, 224 g/ha, 3 day residual, simulated sunlight environment) is recorded as 99%; in the data set on cotton aphid (Table 3, 560 g/ha, 3 day residual, simulated sunlight environment), 100%; in the data set on cotton aphid (Table 3, 1120 g/ha, 3 day residual, simulated sunlight environment), 100%; in the data set on cotton aphid (setting [3]), 58%; with cotton aphid (setting [6]), 70%; in the data set on cotton aphid (setting [9]), 98%. The “Percent Mortality 0 DAT” value in the data set on cotton aphid (Table 3, 224 g/ha, infested 0 days after treatment) turned out to be 100%; in the data set with cotton aphid (Table 3, 560 g/ha, infested 0 days after treatment) it was 100%; in the data set on cotton aphid (Table 3, 1120 g/ha, infested 0 days after treatment), 100%; with cotton aphid (setting [5]), 100%; with cotton aphid (setting [8]), 100%; with cotton aphid (setting [11]), 100%. The “Percent Mortality 5 DAT (greenhouse)” value is 64% in the data set with cotton aphid (setting [4]), 86% with cotton aphid (setting [7]) and 93% with cotton aphid (setting [10]).
